Reference: patent US20050234046A1 (Kalypsys, Inc., priority 2004, published 2005)
pEC50: −log10 of the molar value.

Experiments:
Test in all cases: Transient transfection (transactivation) assay in CV-1 cells, GAL4-PPAR chimera, luciferase reporter
Assay type in all cases: cell-based
PPAR delta = molecular target: T1, PPAR delta (Homo sapiens, UniProt Q03181)
T1 construct: expressed in transfected cells; host or cells: CV-1 cells
T1 sequence (Q03181 211-439 limits assumed): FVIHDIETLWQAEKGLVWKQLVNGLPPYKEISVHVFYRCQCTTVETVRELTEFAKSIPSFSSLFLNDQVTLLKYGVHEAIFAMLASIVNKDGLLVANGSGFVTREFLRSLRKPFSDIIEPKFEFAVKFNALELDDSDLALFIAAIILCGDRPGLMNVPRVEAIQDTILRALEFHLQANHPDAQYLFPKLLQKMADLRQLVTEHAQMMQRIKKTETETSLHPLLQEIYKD

PPAR alpha = molecular target: T2, PPAR alpha (Homo sapiens, UniProt Q07869)
T2 construct: expressed in transfected cells; host or cells: CV-1 cells
T2 sequence (Q07869 239-466 limits assumed): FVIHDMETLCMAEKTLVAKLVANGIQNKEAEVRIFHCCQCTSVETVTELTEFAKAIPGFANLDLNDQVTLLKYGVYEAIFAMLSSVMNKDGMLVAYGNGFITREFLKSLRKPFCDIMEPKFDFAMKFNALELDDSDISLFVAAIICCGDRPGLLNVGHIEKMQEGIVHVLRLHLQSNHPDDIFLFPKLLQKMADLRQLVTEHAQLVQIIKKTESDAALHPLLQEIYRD
Text: Compounds may be screened for functional potency in transient transfection assays in CV-1 cells or other cell types for their ability to activate the PPAR subtypes (transactivation assay). A previously established chimeric receptor system was utilized to allow comparison of the relative transcriptional activity of the receptor subtypes on the same synthetic response element and to prevent endogenous receptor activation from complicating the interpretation of results. See, for example; Lehmann, J. M.; Moore, L. B.; Smith-Oliver, T. A; Wilkinson, W. O.; Willson, T. M.; Kliewer, S. A., An antidiabetic thiazolidinedione is a high affinity ligand for peroxisome proliferatur-activated receptor γ (PPARγ), J. Biol. Chem., 1995, 270, 12953-6. The ligand binding domains for murine and human PPAR-alpha, PPAR-gamma, and PPAR-delta are each fused to the yeast transcription factor GAL4 DNA binding domain. CV-1 cells were transiently transfected with expression vectors for the respective PPAR chimera along with a reporter construct containing four or five copies of the GAL4 DNA binding site driving expression of luciferase. After 8-16 h, the cells are replated into multi-well assay plates and the media is exchanged to phenol-red free DME medium supplemented with 5% delipidated calf serum. 4 hours after replating, cells were treated with either compounds or 1% DMSO for 20-24 hours. Luciferase activity was then assayed with Britelite (Perkin Elmer) following the manufacturer's protocol and measured with either the Perkin Elmer Viewlux or Molecular Devices Acquest Xsee, for example, Kliewer, S. A., et. al. Cell 1995, 83, 813-819). Rosiglitazone is used as a positive control in the hPPAR-γ assay. Wy-14643 and GW7647 is used as a positive control in the hPPAR-α assay. GW501516 is used as the positive control in the hPPAR-δ assay.
Compounds of Examples 1-233 were assayed to measure their biological activity with respect to their EC50 values and efficacy for modulating PPAR-alpha, PPAR-gamma, and PPAR-delta as set forth in Table 3.

PPAR gamma = molecular target: T3, PPAR gamma (Homo sapiens, UniProt P37231)
T3 construct: expressed in transfected cells; host or cells: CV-1 cells
T3 sequence (P37231 238-503 limits assumed): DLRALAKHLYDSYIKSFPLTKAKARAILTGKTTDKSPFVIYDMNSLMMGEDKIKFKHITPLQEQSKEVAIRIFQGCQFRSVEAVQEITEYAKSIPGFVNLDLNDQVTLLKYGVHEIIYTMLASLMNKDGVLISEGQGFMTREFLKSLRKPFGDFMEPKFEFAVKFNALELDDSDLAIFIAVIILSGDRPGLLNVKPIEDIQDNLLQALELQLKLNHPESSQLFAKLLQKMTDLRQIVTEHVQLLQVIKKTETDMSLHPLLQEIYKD

Row | Compound | pEC50 (PPAR delta) | pEC50 (PPAR alpha) | pEC50 (PPAR gamma) | PPAR delta EC50 (PPAR delta) | PPAR gamma EC50 (PPAR gamma)
1 | Cc1ccc(S(=O)(=O)N2CCN(c3ncccn3)CC2)cc1CC(=O)O [Example 47] | 4.00 to 5.30 | < 4.00 | 4.00 to 5.30 |  | 
2 | Cc1ccc(S(=O)(=O)N2CCC(c3ccc(C(F)(F)F)cc3)CC2)cc1CC(=O)O [Example 48, {2-Methyl-5-[4-(4-trifluoromethyl-phenyl)-piperidine-1-sulfonyl]-phenyl}-acetic acid] |  | < 4.00 | 4.00 to 5.30 | B/C | 
3 | Cc1ccc(S(=O)(=O)N2CCC(c3ccc(Cl)c(Cl)c3)CC2)cc1CC(=O)O [Example 49, {5-[4-(3,4-Dichloro-phenyl)-piperidine-1-sulfonyl]-2-methyl-phenyl)-acetic acid] | 4.00 to 5.30 | < 4.00 | 4.00 to 5.30 |  | 
4 | Cc1ccc(S(=O)(=O)N2CCN(c3nc(Cl)c(Cl)s3)CC2)cc1CC(=O)O [Example 51, {5-[4-(4,5-Dichloro-thiazol-2-yl)-piperazine-1-sulfonyl]-2-methyl-phenyl}-acetic acid] | > 5.30 | 4.00 to 5.30 | > 5.30 |  | 
5 | Cc1ccc(S(=O)(=O)N2CCN(c3ccc([N+](=O)[O-])cn3)CC2)cc1CC(=O)O [Example 56, {2-Methyl-5-[4-(5-nitro-pyridin-2-yl)-piperazine-1-sulfonyl]-phenyl}-acetic acid] | > 5.30 | < 4.00 | 4.00 to 5.30 |  | 
6 | Cc1ccc(S(=O)(=O)N2CC=C(c3ccc(C(F)(F)F)cn3)CC2)cc1CC(=O)O [Example 66, [2-Methyl-5-(5-trifluoromethyl-3′,6′-dihydro-2^1H-[2,4′]bipyridinyl-1′-sulfonyl)-phenyl]-acetic acid] | > 5.30 | 4.00 to 5.30 | < 4.00 |  | 
7 | Cc1ccc(S(=O)(=O)N2[C@H](C)CN(c3ccc(C(F)(F)F)c(F)c3)C[C@@H]2C)cc1CC(=O)O [Example 68, {5-[4-(3-Fluoro-4-trifluoromethyl-phenyl)-2,6-dimethyl-piperazine-1-sulfonyl]-2-methyl-phenyl}-acetic acid] | > 5.30 | > 5.30 | 4.00 to 5.30 |  | 
8 | Cc1ccc(S(=O)(=O)N2CCN(c3ccc(C(F)(F)F)cn3)[C@@H](C)C2)cc1CC(=O)O [Example 70, {2-Methyl-5-[(S)-3-methyl-4-(5-trifluoromethyl-pyridin-2-yl)-piperazine-1-sulfonyl]-phenyl}-acetic acid] | > 5.30 | > 5.30 | > 5.30 |  | 
9 | Cc1ccc(S(=O)(=O)N2C[C@@H](C)N(c3ccc(C(F)(F)F)cn3)[C@@H](C)C2)cc1CC(=O)O [Example 72, {2-Methyl-5-[3,5-dimethyl-4-(5-trifluoromethyl-pyridin-2-yl)-piperazine-1-sulfonyl]-phenyl}-acetic acid] | 4.00 to 5.30 | < 4.00 | < 4.00 |  | 
10 | Cc1ccc(S(=O)(=O)N2CCN(c3ccc4occc4c3)CC2C)cc1CC(=O)O (stereo not drawn) [Example 73, [5-(4-Benzofuran-5-yl-2-methyl-piperazine-1-sulfonyl)-2-methyl-phenyl]-acetic acid] | 4.00 to 5.30 | < 4.00 | < 4.00 |  | 
11 | COc1ccc(S(=O)(=O)N2CCN(c3ccc(C(F)(F)F)cc3)CC2)cc1CC(=O)O [Example 75, {2-Methoxy-5-[4-(4-trifluoromethyl-phenyl)-piperazine-1-sulfonyl]-phenyl}-acetic acid] | > 5.30 | < 4.00 | 4.00 to 5.30 |  | 
12 | COc1ccc(S(=O)(=O)N2CCN(c3ccc(C(F)(F)F)cn3)CC2C)cc1CC(=O)O (stereo not drawn) [Example 77, {2-Methoxy-5-[2-methyl-4-(5-trifluoromethyl-pyridin-2-yl)-piperazine-1-sulfonyl]-phenyl}-acetic acid] | > 5.30 | < 4.00 | 4.00 to 5.30 |  | 

Other lines, results leading:

Row | pEC50 (PPAR delta) | pEC50 (PPAR alpha) | pEC50 (PPAR gamma) | PPAR delta EC50 (PPAR delta) | PPAR gamma EC50 (PPAR gamma) | Compound
13 | 4.00 to 5.30 | < 4.00 | 4.00 to 5.30 |  |  | Cc1ccc(S(=O)(=O)N2CCN(c3nc(Cl)cs3)CC2)cc1CC(=O)O [Example 50, {5-[4-(4-Chloro-thiazol-2-yl)-piperazine-1-sulfonyl]-2-methyl-phenyl}-acetic acid]
14 | 4.00 to 5.30 | < 4.00 | 4.00 to 5.30 |  |  | Cc1ccc(S(=O)(=O)N2CCN(c3nc(C(F)(F)F)cs3)CC2)cc1CC(=O)O [Example 53, {2-Methyl-5-[4-(4-trifluoromethyl-thiazol-2-yl)-piperazine-1-sulfonyl]-phenyl}-acetic acid]
15 | > 5.30 | > 5.30 | > 5.30 |  |  | Cc1ccc(S(=O)(=O)N2CCN(c3ncc(C(F)(F)F)cc3Cl)CC2)cc1CC(=O)O [Example 54, {5-[4-(3-Chloro-5-trifluoromethyl-pyridin-2-yl)-piperazine-1-sulfonyl]-2-methyl-phenyl}-acetic acid]
16 | > 5.30 | 4.00 to 5.30 | 4.00 to 5.30 |  |  | Cc1ccc(S(=O)(=O)N2CCN(c3ncc(Br)s3)CC2)cc1CC(=O)O [Example 55, {5-[4-(5-Bromo-thiazol-2-yl)-piperazine-1-sulfonyl]-2-methyl-phenyl}-acetic acid]
17 | > 5.30 | 4.00 to 5.30 | > 5.30 |  |  | Cc1ccc(S(=O)(=O)N2CCN(c3ncc(Cl)cn3)CC2)cc1CC(=O)O [Example 57, {5-[4-(5-Chloro-pyrimidin-2-yl)-piperazine-1-sulfonyl]-2-methyl-phenyl}-acetic acid]
18 | > 5.30 | 4.00 to 5.30 | > 5.30 |  |  | Cc1ccc(S(=O)(=O)N2CCN(c3ncc(Br)cn3)CC2)cc1CC(=O)O [Example 58, {5-[4-(5-Bromo-pyrimidin-2-yl)-piperazine-1-sulfonyl]-2-methyl-phenyl}-acetic acid]
19 | > 5.30 | > 5.30 | > 5.30 |  |  | Cc1ccc(S(=O)(=O)N2CCN(c3ncc(C(F)(F)F)cn3)CC2)cc1CC(=O)O [Example 59, {2-Methyl-5-[4-(5-trifluoromethyl-pyrimidin-2-yl)-piperazine-1-sulfonyl]-phenyl}-acetic acid]
20 | > 5.30 | < 4.00 | > 5.30 |  |  | Cc1ccc(S(=O)(=O)N2CCN(c3ccc(Br)cn3)CC2)cc1CC(=O)O [Example 61, {5-[4-(5-Bromo-pyridin-2-yl)-piperazine-1-sulfonyl]-2-methyl-phenyl}-acetic acid]
21 | > 5.30 | < 4.00 |  |  | B/C | Cc1ccc(S(=O)(=O)N2CCN(c3ccc(Cl)cn3)CC2)cc1CC(=O)O [Example 62, {5-[4-(5-Chloro-pyridin-2-yl)-piperazine-1-sulfonyl]-2-methyl-phenyl}-acetic acid]
22 | > 5.30 | < 4.00 | 4.00 to 5.30 |  |  | Cc1ccc(S(=O)(=O)N2CCN(c3ncc(F)cn3)CC2)cc1CC(=O)O [Example 63, {5-[4-(5-Fluoro-pyrimidin-2-yl)-piperazine-1-sulfonyl]-2-methyl-phenyl}-acetic acid]
23 | < 4.00 | < 4.00 | 4.00 to 5.30 |  |  | Cc1ccc(S(=O)(=O)N2CCN(c3nc(Cl)ncc3F)CC2)cc1CC(=O)O [Example 64, {5-[4-(2-Chloro-5-fluoro-pyrimidin-4-yl)-piperazine-1-sulfonyl]-2-methyl-phenyl}-acetic acid]
24 | 4.00 to 5.30 | < 4.00 | < 4.00 |  |  | Cc1ccc(S(=O)(=O)N2CCN(c3ccc(C(F)(F)F)nn3)CC2)cc1CC(=O)O [Example 74]
25 | > 5.30 | < 4.00 | 4.00 to 5.30 |  |  | COc1ccc(S(=O)(=O)N2CCN(c3ccc(C(F)(F)F)cn3)CC2)cc1CC(=O)O [Example 76, {2-Methoxy-5-[4-(5-trifluoromethyl-pyridin-2-yl)-piperazine-1-sulfonyl]-phenyl}-acetic acid]
